From paper PMC4718910 (SpringerPlus, 2016)
Like-named read-outs stand apart in the source and are kept apart here.

Experiments:
[1] = Afatinib plasma pharmacokinetics (HPLC-MS/MS); assay type: in vivo, human; details: for AUC / Tmax: human, plasma, po; for AUC: read-out: AUCtau,ss, geometric mean; for Tmax: read-out: tmax,ss, median
[2] = Letrozole plasma pharmacokinetics (HPLC-MS/MS); assay type: in vivo, human
Experimental: For quantification of drug plasma concentrations, 5 mL of venous blood was collected. […] Letrozole plasma concentrations were determined by a validated HPLC–MS/MS assay at Nuvisan Pharma Services GmbH & Co. KG, Neu-Ulm, Germany.

HER2 = details: read-out: half maximal inhibitory concentration, HER2; ref Li et al. [2008]; cited from earlier work
[3] = test system: HER2-positive metastatic breast cancer (MBC); set-up: method as in Lin et al. [2012]; details: afatinib monotherapy 50 mg/day, heavily pre-treated HER2-positive MBC after trastuzumab; ref Lin et al. [2012]; cited from earlier work
ErbB3 = test system: ErbB3; set-up: method as in Li et al. [2008]; details: ref Li et al. [2008]; cited from earlier work
ErbB4 = details: read-out: half maximal inhibitory concentration, ErbB4; ref Li et al. [2008]; cited from earlier work
ER/PgR/HER2-positive MBC = test system: ER/PgR/HER2-positive MBC; set-up: method as in Kaufman et al. [2009]; details: N 207, ref Kaufman et al. [2009]; cited from earlier work
ER/PgR-positive MBC = test system: ER/PgR-positive MBC; set-up: method as in Huober et al. [2012]; details: ref Huober et al. [2012], cited from earlier work
[4] = test system: ER/PgR-positive HER2-negative MBC; set-up: method as in Bachelot et al. [2012]; details: aromatase inhibitor-resistant, N 111; ref Bachelot et al. [2012]; cited from earlier work
[5] = Afatinib 30 mg multiple oral administrations with letrozole 2.5 mg, N 5
[6] = Afatinib 40 mg multiple oral administrations with letrozole 2.5 mg, N 4
[7] = ER/PgR-positive HER2-negative MBC, N 35

With `CN(C)C/C=C/C(=O)Nc1cc2c(Nc3ccc(F)c(Cl)c3)ncnc2cc1O[C@H]1CCOC1` [Afatinib] the “Cpre,ss, 57, geometric mean” value ([1]; Afatinib 30 mg with letrozole 2.5 mg, pre-dose day 1 of cycle 3, N 8) was 15.8 ng/mL, the “Cpre,ss, 85, geometric mean” value ([1]; Afatinib 30 mg with letrozole 2.5 mg, pre-dose day 1 of cycle 4, N 5) was 17.3 ng/mL and the “Cpre,ss, 57, geometric mean” value ([1]; Afatinib 40 mg with letrozole 2.5 mg, pre-dose day 1 of cycle 3, N 5) was 21.4 ng/mL. For the same molecule, the “Cpre,ss, 85, geometric mean” value ([1]; Afatinib 40 mg with letrozole 2.5 mg, pre-dose day 1 of cycle 4, N 4) was 16.9 ng/mL, the AUC [1, 5] was 579 ng·h/mL and the Tmax [1, 5] was 4 h. The AUC [1, 6] was 660 ng·h/mL, the Tmax [1, 6] was 2 h and the “effect of afatinib on letrozole exposure” value ([2]; letrozole trough and 2-h post-dose plasma concentrations, screening period vs afatinib treatment period) was “no effect”. For the same molecule, the IC50 (HER2) was 14 nM, the “Median PFS” value [3] was 15 weeks and the “overall survival (OS)” value [3] was 61 weeks. The ErbB3 transphosphorylation (ErbB3) was “inhibits ErbB3 transphosphorylation” and the IC50 (ErbB4) was […].
For `CC(C)(C#N)c1cc(Cn2cncn2)cc(C(C)(C)C#N)c1` [Anastrozole], the “Median PFS (independent assessment)” value (ER/PgR/HER2-positive MBC) is given as 2.4 (independent assessment) months.
In the case of `N#Cc1ccc(C(c2ccc(C#N)cc2)n2cncn2)cc1` [Letrozole], the AUC ([2]; human, plasma, oral, 2.5 mg, read-out: geometric mean AUCtau,ss) is given as 2420 ng·h/mL, the Cmax ([2]; human, plasma, oral, 2.5 mg, read-out: geometric mean Cmax,ss) is given as 135 ng/mL and the “Grade ≥3 bone pain” value (ER/PgR-positive MBC; [7]) is given as “Bone pain 6%”. The “Median PFS” value (ER/PgR-positive MBC; [7]) was 15.2 months, the “Median PFS” value (ER/PgR-positive MBC; ER/PgR/HER2-positive MBC, first-line) was 3.3 months and the “Grade ≥3 bone pain” value (ER/PgR-positive MBC; ER/PgR/HER2-positive MBC) was 7%. For the same molecule, the “Grade ≥3 dyspnea” value (ER/PgR-positive MBC; ER/PgR/HER2-positive MBC) was 7%.
For `CC/C(=C(\c1ccccc1)c1ccc(OCCN(C)C)cc1)c1ccccc1` [Tamoxifen], the Clinical benefit rate [4] is given as “Clinical benefit rate = 42%”.
